Broadly, the IC50 is the concentration needed to halve the response being measured. High values mean a need for much substance, low ones inhibition by little substance. The Ki is the equilibrium dissociation constant of an inhibitor or competing ligand from its target.

The values below come from patent publication US20260061082A1, “PROSTATE-SPECIFIC MEMBRANE ANTIGEN TARGETED DEEP-TUMOR PENETRATION OF POLYMER NANODRUGS AND METHODS OF USE THEREOF” (priority 2022, published 2026).

In data set [1] the target is T1, PSMA (PSMA+ PC3-Pip cells) (Homo sapiens, UniProt Q04609).
T1 construct: host or cells: PC3-Pip (PSMA+ subline of PC-3)
T1 sequence (Q04609 whole entry): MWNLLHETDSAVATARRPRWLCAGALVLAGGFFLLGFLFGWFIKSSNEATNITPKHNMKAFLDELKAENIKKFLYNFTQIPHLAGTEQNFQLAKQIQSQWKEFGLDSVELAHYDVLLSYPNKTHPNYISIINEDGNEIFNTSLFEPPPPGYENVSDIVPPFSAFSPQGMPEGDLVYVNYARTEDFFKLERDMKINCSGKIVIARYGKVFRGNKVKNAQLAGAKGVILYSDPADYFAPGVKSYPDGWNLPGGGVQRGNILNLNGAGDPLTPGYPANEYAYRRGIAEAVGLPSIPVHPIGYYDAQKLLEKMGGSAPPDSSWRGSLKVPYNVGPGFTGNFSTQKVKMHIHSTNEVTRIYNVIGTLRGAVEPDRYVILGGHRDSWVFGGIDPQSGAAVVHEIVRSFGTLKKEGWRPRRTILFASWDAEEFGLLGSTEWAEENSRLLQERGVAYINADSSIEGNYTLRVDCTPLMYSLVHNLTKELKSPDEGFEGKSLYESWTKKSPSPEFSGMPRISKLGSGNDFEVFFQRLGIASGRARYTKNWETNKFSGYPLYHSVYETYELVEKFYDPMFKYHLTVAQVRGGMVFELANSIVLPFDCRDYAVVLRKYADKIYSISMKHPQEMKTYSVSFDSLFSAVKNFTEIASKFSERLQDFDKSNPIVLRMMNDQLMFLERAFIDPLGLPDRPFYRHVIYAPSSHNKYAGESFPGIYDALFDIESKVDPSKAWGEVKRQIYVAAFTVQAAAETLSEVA
As to the kind of experiment: 68Ga-PSMA-11 competition radioligand binding assay.
Description: Competition Radioligand Binding Assay: The nanoparticles were utilized in a ^68Ga-PSMA-11 competition radioligand binding assay to obtain the IC50 values, similar to our prior method. […] PC3-Pip cells were seeded in 96-well plates (˜20 k cells/wells) ˜24 h prior testing in RPMI1640 medium containing with 10% FBS and 1% penicillin/streptomycin. The growth medium was discarded, and the cells were washed with PBS two times. […] The treated cells were incubated for 1 h at room temperature. Then, the radioactive medium was discarded, and the cells were washed twice with PBS. The cells in each well were then treated with NaOH (5N, 250 μL) and incubated for 30 min at 37° C. for lysis. The lysate from each well was collected in vials and analyzed in a Hidex gamma counter to quantify the bound activity. IC50 was calculated by nonlinear regression analysis in Graph-Pad Prism software.
Competition Radioligand Binding Assay: Similar to our prior reported protocol, ^68Ga-PSMA-11 was produced in a ^68Ge/^68Ga generator, and used in a competition radioligand binding assay to acquire the IC50 values for the nanocarriers. […] After 1 h incubated at room temperature, the radioactive medium was removed, and the cells were washed with PBS twice. The cells were lyzed with sodium hydroxide and the radioactivity of the lysate in each well was counted in a Hidex gamma counter. IC50 was determined by nonlinear regression analysis in Prism software (Graph-Pad).

Data set [2] has as its target PSMA (Homo sapiens, UniProt Q04609). The settings on record: previously reported; cited from earlier work.
For data set [3], the system named is PC3-Pip metastatic tumors. Nature of the data set: Ex vivo organ biodistribution of [68Ga]PSMA-11 in PC3-Pip metastatic models after treatment. The settings on record: Control mice (no 177Lu nanocarrier), individual mice.
In data set [4] the test system is PSMA+ PC3-Pip subcutaneous tumors. As to the kind of experiment: Treatment study in PSMA+ PC3-Pip subcutaneous models. In kind it is in vivo, mice. The settings on record: 250 μCi single dose. As for the experimental part: The tumor measurements were carried out twice a week, and tumor volumes were calculated by formula V=[length×(width)^2]/2.
Data set [5] shares this test system. The settings on record: prior literature; cited from earlier work.
The test system of data set [6] is prostate specific antigen. The settings on record: patients receiving as low as 14 Gy tumor-absorbed dose; cited from earlier work.

Values joined by “and” are separate entries in the source; they are usually repeats but may differ in a detail not shown here. Equal values may be shown once. Read-outs that look alike come from different tables or passages of the source.

PSMA, sequence (Q04609 whole entry, species assumed): as the sequence (Q04609 whole entry) above

For `[N-]=[N+]=NCCCCCCOC(=O)NCCCC[C@H](NC(=O)N[C@@H](CCC(=O)O)C(=O)O)C(=O)O` [Azido-ACUPA], the 50% inhibitory concentration (IC50) in data set [1] (Table 2 Experiment 1, unlabeled) is 350 nM; in data set [1] (Table 10 Experiment 2, unlabeled), 328 nM.
`O=C(O)CC[C@H](NC(=O)N[C@@H](CCCCNC(=O)Nc1ccc(I)cc1)C(=O)O)C(=O)O` [PSMA-2] registered an IC50 in data set [1] (Table 10 Experiment 1, unlabeled) of 25.5 nM. In data set [2], the inhibition constant (Ki) is 0.24 nM.
Take `O=C([O-])CN(CCN(CC(=O)[O-])Cc1cc(CCC(=O)NCCCCCC(=O)NCCCC[C@H](NC(=O)N[C@@H](CCC(=O)O)C(=O)O)C(=O)O)ccc1[O-])Cc1cc(CCC(=O)O)ccc1[O-].[68Ga+3].[OH3+]` [[^68Ga]PSMA-11]: in data set [3] (day 35), the “[^68Ga]PSMA-11 ex vivo organ biodistribution, Blood” value was 0.114 % ID/g and 0.2999 % ID/g and 0.08 % ID/g and 0.1 % ID/g and 0.06 % ID/Organ and 0.2029 % ID/Organ and 0.05813 % ID/Organ and 0.05324 % ID/Organ; the “[^68Ga]PSMA-11 ex vivo organ biodistribution, Bone” value was 0.335 % ID/g and 0.215 % ID/g and 0.2269 % ID/g and 0.3033 % ID/g and 0.08 % ID/Organ and 0.05419 % ID/Organ and 0.04439 % ID/Organ and 0.06845 % ID/Organ; the “[^68Ga]PSMA-11 ex vivo organ biodistribution, Brain” value was 0.046 % ID/g and 0.01371 % ID/g and 0.02404 % ID/g and 0.03404 % ID/g and 0.02 % ID/Organ and 0.004254 % ID/Organ and 0.009255 % ID/Organ and 0.01265 % ID/Organ; the “[^68Ga]PSMA-11 ex vivo organ biodistribution, Heart” value was 1.938 % ID/g and 1.093 % ID/g and 0.8842 % ID/g and 0.9371 % ID/g and 0.29 % ID/Organ and 0.1577 % ID/Organ and 0.1548 % ID/Organ and 0.1476 % ID/Organ. Besides, in data set [3] (day 35), the “[^68Ga]PSMA-11 ex vivo organ biodistribution, Large Int” value was 0.663 % ID/g and 0.3338 % ID/g and 0.1292 % ID/g and 0.592 % ID/g and 0.09 % ID/Organ and 0.08014 % ID/Organ and 0.03072 % ID/Organ and 0.1919 % ID/Organ; the “[^68Ga]PSMA-11 ex vivo organ biodistribution, Liver” value was 0.855 % ID/g and 0.4054 % ID/g and 0.232 % ID/g and 0.289 % ID/g and 0.62 % ID/Organ and 0.2982 % ID/Organ and 0.1099 % ID/Organ and 0.2246 % ID/Organ; the “[^68Ga]PSMA-11 ex vivo organ biodistribution, Lung” value was 8.218 % ID/g and 1.814 % ID/g and 1.285 % ID/g and 1.336 % ID/g and 3.12 % ID/Organ and 0.2767 % ID/Organ and 0.1869 % ID/Organ and 0.2393 % ID/Organ; the “[^68Ga]PSMA-11 ex vivo organ biodistribution, Muscle” value is 0.414 % ID/g and 0.2044 % ID/g and 0.2192 % ID/g and 0.1624 % ID/g and 0.2 % ID/Organ and 0.05644 % ID/Organ and 0.04564 % ID/Organ and 0.04172 % ID/Organ. For the same molecule, in data set [3] (day 35), the “[^68Ga]PSMA-11 ex vivo organ biodistribution, Pancreas” value was 0.464 % ID/g and 0.2066 % ID/g and 0.2297 % ID/g and 0.5007 % ID/g and 0.04 % ID/Organ and 0.02448 % ID/Organ and 0.03206 % ID/Organ and 0.07795 % ID/Organ; the “[^68Ga]PSMA-11 ex vivo organ biodistribution, Skin” value was 3.25 % ID/g and 0.586 % ID/g and 0.9817 % ID/g and 0.4433 % ID/g and 1.08 % ID/Organ and 0.2667 % ID/Organ and 0.196 % ID/Organ and 0.2187 % ID/Organ; the “[^68Ga]PSMA-11 ex vivo organ biodistribution, Small Int” value was 0.29 % ID/g and 0.1397 % ID/g and 0.1663 % ID/g and 0.1479 % ID/g and 0.03 % ID/Organ and 0.02347 % ID/Organ and 0.03142 % ID/Organ and 0.02756 % ID/Organ; the “[^68Ga]PSMA-11 ex vivo organ biodistribution, Splcon” value is 22.586 % ID/g and 8.851 % ID/g and 8.108 % ID/g and 16.38 % ID/g. In addition, in data set [3] (day 35), the “[^68Ga]PSMA-11 ex vivo organ biodistribution, Spleen” value is 1.34 % ID/Organ and 1.068 % ID/Organ and 0.7168 % ID/Organ and 1.253 % ID/Organ; the “[^68Ga]PSMA-11 ex vivo organ biodistribution, Stomach” value was 0.171 % ID/g and 0.3271 % ID/g and 0.1157 % ID/g and 0.09441 % ID/g and 0.16 % ID/Organ and 0.1002 % ID/Organ and 0.07062 % ID/Organ and 0.08055 % ID/Organ. Also, in data set [3] (day 50), the “[^68Ga]PSMA-11 ex vivo organ biodistribution, Blood” value is 0.212 % ID/g and 0.29 % ID/g and 0.207 % ID/g and 0.07 % ID/g and 0.13 % ID/Organ and 0.26 % ID/Organ and 0.14 % ID/Organ; the “[^68Ga]PSMA-11 ex vivo organ biodistribution, Bone” value was 0.398 % ID/g and 1.082 % ID/g and 0.335 % ID/g and 0.768 % ID/g and 0.06 % ID/Organ and 0.07 % ID/Organ and 0.05 % ID/Organ; the “[^68Ga]PSMA-11 ex vivo organ biodistribution, Brain” value is 0.037 % ID/g and 0.073 % ID/g and 0.024 % ID/g and 0.025 % ID/g and 0.01 % ID/Organ and 0.02 % ID/Organ; the “[^68Ga]PSMA-11 ex vivo organ biodistribution, Heart” value was 1.037 % ID/g and 1.182 % ID/g and 0.615 % ID/g and 0.906 % ID/g and 0.16 % ID/Organ and 0.09 % ID/Organ and 0.14 % ID/Organ and 0.18 % ID/Organ. Moreover, in data set [3] (day 50), the “[^68Ga]PSMA-11 ex vivo organ biodistribution, Large Int” value is 0.766 % ID/g and 0.402 % ID/g and 1.093 % ID/g and 1.205 % ID/g and 0.12 % ID/Organ and 0.06 % ID/Organ and 0.24 % ID/Organ and 0.25 % ID/Organ; the “[^68Ga]PSMA-11 ex vivo organ biodistribution, Liver” value was 2.351 % ID/g and 1.41 % ID/g and 0.215 % ID/g and 0.336 % ID/g and 3.36 % ID/Organ and 0.35 % ID/Organ and 0.3 % ID/Organ and 0.41 % ID/Organ; the “[^68Ga]PSMA-11 ex vivo organ biodistribution, Lungs” value is 4.185 % ID/g and 14.472 % ID/g and 1.403 % ID/g and 2.187 % ID/g and 0.55 % ID/Organ and 1.74 % ID/Organ and 0.19 % ID/Organ and 0.34 % ID/Organ; the “[^68Ga]PSMA-11 ex vivo organ biodistribution, Muscle” value is 0.335 % ID/g and 0.498 % ID/g and 0.405 % ID/g and 0.533 % ID/g and 0.04 % ID/Organ and 0.06 % ID/Organ and 0.11 % ID/Organ and 0.09 % ID/Organ. For the same molecule, in data set [3] (day 50), the “[^68Ga]PSMA-11 ex vivo organ biodistribution, Pancreas” value is 0.568 % ID/g and 0.668 % ID/g and 0.447 % ID/g and 0.649 % ID/g and 0.05 % ID/Organ and 0.07 % ID/Organ and 0.06 % ID/Organ; the “[^68Ga]PSMA-11 ex vivo organ biodistribution, Skin” value was 1.068 % ID/g and 2.397 % ID/g and 0.883 % ID/g and 0.807 % ID/g and 0.62 % ID/Organ and 0.6 % ID/Organ and 0.31 % ID/Organ and 0.33 % ID/Organ; the “[^68Ga]PSMA-11 ex vivo organ biodistribution, Small Int” value is 0.365 % ID/g and 0.631 % ID/g and 0.23 % ID/g and 0.289 % ID/g and 0.05 % ID/Organ and 0.09 % ID/Organ and 0.06 % ID/Organ and 0.07 % ID/Organ; the “[^68Ga]PSMA-11 ex vivo organ biodistribution, Spleen” value was 10.073 % ID/g and 86.889 % ID/g and 5.37 % ID/g and 8.812 % ID/g and 0.58 % ID/Organ and 1.25 % ID/Organ and 0.94 % ID/Organ and 1.1 % ID/Organ. The “[^68Ga]PSMA-11 ex vivo organ biodistribution, Stomach” value in data set [3] (day 50) was 0.605 % ID/g and 0.424 % ID/g and 0.154 % ID/g and 0.107 % ID/g and 0.34 % ID/Organ and 0.17 % ID/Organ and 0.12 % ID/Organ and 0.11 % ID/Organ.
Consider `O=C([O-])CN1CCN(CC(=O)[O-])CCN(CC(=O)NCC2CCC(C(=O)N[C@@H](Cc3ccc4ccccc4c3)C(=O)NCCCC[C@H](NC(=O)N[C@@H](CCC(=O)O)C(=O)O)C(=O)O)CC2)CCN(CC(=O)[O-])CC1.[177Lu+3]` (stereo partly shown) [[^177Lu]PSMA-617], for which the median survival is listed as 46 days in data set [4] and 51 days in data set [5]. The “reduction of prostate specific antigen” value in data set [6] is “more than 50%”.
